The source of these data is patent publication US6890906B2, “Method for controlling angiogenesis in animals” (Glycogenesys, Inc., priority 2001, dated 2005).

Assay [1] relates to human umbilical vein endothelial cells (HUVEC). As to conditions: for AVERAGE cell count: average of runs; for Cell count (cells that migrated through the membrane): single runs, 4 hours, 37° C. On the procedure: In a first portion of the experimental series, the effect of the chemoattractant vascular endothelial growth factor (VEGF) on human umbilical vein endothelial cells (HUVEC) was quantified. The experiment was carried out in a transwell plate, and in preparation therefor, HUVEC cells were grown to approximately 80% confluency. The cells were suspended in basal media and placed in a transwell plate on fibronectin coated membrane inserts at 50,000 cells per insert. Varying concentrations of VEGF were added to the bottom chamber of the transwell plate, and the plates incubated for 4 hours at 37° C. with a 5% CO2 atmosphere. Following incubation, the membranes were fixed and stained. Nonmigrated cells were removed by mechanical abrasion and cells that migrated through the membrane were counted. […] Three runs were made.

Assay [2] has the same test system. Description: Inhibition of VEGF-induced HUVEC cell migration by modified pectin in transwell plate. It counts as cell-based. The settings on record: VEGF 30 ng/ml Only (positive control, no GCS-100). The procedure:
Following incubation, the membranes were fixed and stained. […] Three runs were made.
The material comprised a modified pectin which is commercially available from GlycoGenesys, Inc. of Boston, Mass., under the designation GCS-100. In this experimental series, HUVEC cells were incubated in a transwell plate with VEGF, and varying concentrations of the therapeutic material, under conditions as described hereinabove. The concentration of VEGF was 30 ng/ml. In one group of experiments, cells were incubated with VEGF in the absence of the carbohydrate material, and these experiments served as a positive control. In another group of experiments, cells were incubated with growth medium and no VEGF or therapeutic carbohydrate, and this group served as a negative control. In the remaining experiments, concentrations of the GCS-100 ranging from 0.001% to 0.1% were employed.

Several values for one entry are separate records, joined by “and”; a condition that tells them apart may be missing. Equal values may be shown once. Read-outs that look alike come from different tables or passages of the source.

For the substance “vascular endothelial growth factor [VEGF]”, the AVERAGE cell count was determined as 734 in assay [1] (1 ng/ml VEGF); 1043 in assay [1] (3 ng/ml VEGF); 1218 in assay [1] (10 ng/ml VEGF); 1162 in assay [1] (30 ng/ml VEGF); 1210 in assay [1] (100 ng/ml VEGF); 1244 in assay [2] (average). Also, the “Cell count (cells that migrated through the membrane)” value in assay [1] (1 ng/ml VEGF) is 607 and 766 and 830; in assay [1] (3 ng/ml VEGF), 950 and 1136; in assay [1] (10 ng/ml VEGF) it was 1144 and 938 and 1573; in assay [1] (30 ng/ml VEGF), 898 and 1448 and 1140; in assay [1] (100 ng/ml VEGF), 1650 and 901 and 1078. Moreover, the chemotactic effect result in assay [1] (VEGF concentrations of 10-30 ng/ml) is reported as “strong chemotactic effect”. Moreover, the “Cell count (migrated cells)” value in assay [2] (single runs) is 1322 and 1167.
